# Test results reported in patent publication US11180474B2 (BRISTOL-MYERS SQUIBB COMPANY, priority 2016, dated 2021).
# Biological target: T1, human TLR9 (Homo sapiens, UniProt Q9NR96)
# T1 construct: host or cells: HEK-Blue cells
# T1 sequence (Q9NR96 26-1032): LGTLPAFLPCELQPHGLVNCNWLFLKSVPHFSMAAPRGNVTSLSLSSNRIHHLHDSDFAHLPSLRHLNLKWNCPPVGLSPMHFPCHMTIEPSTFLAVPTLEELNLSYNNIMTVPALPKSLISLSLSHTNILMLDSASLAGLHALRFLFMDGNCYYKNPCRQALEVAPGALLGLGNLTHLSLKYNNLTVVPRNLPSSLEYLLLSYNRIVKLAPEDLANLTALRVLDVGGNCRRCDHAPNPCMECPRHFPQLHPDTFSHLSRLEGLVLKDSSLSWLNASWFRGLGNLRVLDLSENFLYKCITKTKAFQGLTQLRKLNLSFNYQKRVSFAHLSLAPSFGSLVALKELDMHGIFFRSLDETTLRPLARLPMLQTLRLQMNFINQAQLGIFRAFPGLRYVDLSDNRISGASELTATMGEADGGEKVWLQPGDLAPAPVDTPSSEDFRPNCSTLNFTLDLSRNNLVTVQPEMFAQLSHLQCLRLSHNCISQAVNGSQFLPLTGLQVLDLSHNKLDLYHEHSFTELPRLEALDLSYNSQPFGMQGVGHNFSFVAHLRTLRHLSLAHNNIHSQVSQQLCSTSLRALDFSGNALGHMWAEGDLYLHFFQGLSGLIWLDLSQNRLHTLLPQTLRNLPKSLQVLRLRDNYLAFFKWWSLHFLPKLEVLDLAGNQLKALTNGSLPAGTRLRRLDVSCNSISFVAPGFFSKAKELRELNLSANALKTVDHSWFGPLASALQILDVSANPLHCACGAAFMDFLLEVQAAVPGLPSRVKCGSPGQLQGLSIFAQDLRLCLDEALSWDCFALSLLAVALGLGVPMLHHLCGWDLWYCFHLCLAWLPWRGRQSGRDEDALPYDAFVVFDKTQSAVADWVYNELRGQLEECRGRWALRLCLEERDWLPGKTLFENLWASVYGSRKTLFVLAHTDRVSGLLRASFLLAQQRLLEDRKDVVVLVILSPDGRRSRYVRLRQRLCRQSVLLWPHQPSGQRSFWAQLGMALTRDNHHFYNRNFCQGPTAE
# Assay: TLR9 inhibition reporter assay (HEK-Blue cells, SEAP reporter, ODN2006 stimulation)
# Assay type: cell-based
# Conditions: HEK-Blue cells overexpressing human TLR9, ODN2006 5 nM
# Procedure, shortened: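 Human TLR7/8/9 HEK-Blue reporter lines; dose range 0.05 nM–50 μM; 30 min RT preincubation; stimulus gardiquimod 7.5 μM / R848 15.9 μM / ODN2006 5 nM respectively; 22 h, 37 °C; SEAP detected colorimetrically.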
row,SMILES,IC50 [nM]
1,"COc1ccc(-c2[nH]c3ccc(C4CCN(C(=O)CN(C)CCO)CC4)cc3c2C(C)C)cc1OC [Example 242, 1-(4-(2-(3,4-dimethoxyphenyl)-3-isopropyl-1H-indol-5-yl)piperidin-1-yl)-2-((2-hydroxyethyl)(methyl)amino)ethan-1-one]",976
2,"COc1ccc(-c2[nH]c3ccc(C4CCN(C(=O)CN5CCC(CO)CC5)CC4)cc3c2C(C)C)cc1OC [Example 243, 1-(4-(2-(3,4-dimethoxyphenyl)-3-isopropyl-1H-indol-5-yl)piperidin-1-yl)-2-(4-(hydroxymethyl)piperidin-1-yl)ethan-1-one]",1510
3,"COc1ccc(-c2[nH]c3ccc(C4CCN(C(=O)CN5CCC(N(C)C)CC5)CC4)cc3c2C(C)C)cc1OC [Example 244, 1-(4-(2-(3,4-dimethoxyphenyl)-3-isopropyl-1H-indol-5-yl)piperidin-1-yl)-2-(4-(dimethylamino)piperidin-1-yl)ethan-1-one]",381
4,"COc1ccc(-c2[nH]c3ccc(C4CCN(C(=O)CNC5CCC(C(C)(C)O)CC5)CC4)cc3c2C(C)C)cc1OC (centres unmarked) [Example 245, 1-(4-(2-(3,4-dimethoxyphenyl)-3-isopropyl-1H-indol-5-yl)piperidin-1-yl)-2-((4-(2-hydroxypropan-2-yl)cyclohexyl)amino)ethan-1-one]",1140
5,"COc1ccc(-c2[nH]c3ccc(C4CCN(C(=O)CNC5CCC(O)CC5)CC4)cc3c2C(C)C)cc1OC (centres unmarked) [Example 246, 1-(4-(2-(3,4-dimethoxyphenyl)-3-isopropyl-1H-indol-5-yl)piperidin-1-yl)-2-((4-hydroxycyclohexyl)amino)ethan-1-one]",664
6,"CCN(CC)C(=O)C1CCCN(CC(=O)N2CCC(c3ccc4[nH]c(-c5ccc(OC)c(OC)c5)c(C(C)C)c4c3)CC2)C1 (centres unmarked) [Example 247, 1-(2-(4-(2-(3,4-dimethoxyphenyl)-3-isopropyl-1H-indol-5-yl)piperidin-1-yl)-2-oxoethyl)-N,N-diethylpiperidine-3-carboxamide]",4130
7,"CCN(CC)C(=O)C1CCCN(CC(=O)N2CCC(c3ccc4[nH]c(-c5ccc(OC)c(OC)c5)c(C(C)C)c4c3)CC2)C1 (centres unmarked) [Example 248, 1-(2-(4-(2-(3,4-dimethoxyphenyl)-3-isopropyl-1H-indol-5-yl)piperidin-1-yl)-2-oxoethyl)-N,N-diethylpiperidine-3-carboxamide]",163
8,"COc1ccc(-c2[nH]c3ccc(C4CCN(C(=O)CN5CCCC(CO)C5)CC4)cc3c2C(C)C)cc1OC (centres unmarked) [Example 249, 1-(4-(2-(3,4-dimethoxyphenyl)-3-isopropyl-1H-indol-5-yl)piperidin-1-yl)-2-(3-(hydroxymethyl)piperidin-1-yl)ethan-1-one]",780
9,"COc1ccc(-c2[nH]c3ccc(C4CCN(C(=O)CNC[C@@H](F)C(C)(C)O)CC4)cc3c2C(C)C)cc1OC [Example 251, (R)-1-(4-(2-(3,4-dimethoxyphenyl)-3-isopropyl-1H-indol-5-yl)piperidin-1-yl)-2-((2-fluoro-3-hydroxy-3-methylbutyl)amino) ethan-1-one]",15300
10,"COc1ccc(-c2[nH]c3ccc(C4CCN(C(=O)C[C@H](C)N)CC4)cc3c2C(C)C)cc1OC [Example 253, (S)-3-amino-1-(4-(2-(3,4-dimethoxyphenyl)-3-isopropyl-1H-indol-5-yl)piperidin-1-yl)butan-1-one]",445
11,"CNCC(=O)N1CCC(c2ccc3[nH]c(-c4ccc(OC)c(OC)c4)c(C(C)C)c3c2)CC1 [Example 256, 1-(4-(2-(3,4-dimethoxyphenyl)-3-isopropyl-1H-indol-5-yl)piperidin-1-yl)-2-(methylamino)ethan-1-one]",2320
12,"COc1ccc(-c2[nH]c3ccc(C4CCN(Cc5cncn5C)CC4)cc3c2C(C)C)cc1OC [Example 258, 2-(3,4-dimethoxyphenyl)-3-isopropyl-5-(1-((1-methyl-1H-imidazol-5-yl)methyl)piperidin-4-yl)-1H-indole]",1440

# The next lines start with the values.
row,IC50 [nM],SMILES
1,2030,"COc1ccc(-c2[nH]c3ccc(C4CCN(Cc5cnn(C)c5)CC4)cc3c2C(C)C)cc1OC [Example 259, 2-(3,4-dimethoxyphenyl)-3-isopropyl-5-(1-((1-methyl-1H-pyrazol-4-yl)methyl)piperidin-4-yl)-1H-indole]"
2,2970,"COc1ccc(-c2[nH]c3ccc(C4CCN(Cc5nccn5C)CC4)cc3c2C(C)C)cc1OC [Example 262, 2-(3,4-dimethoxyphenyl)-3-isopropyl-5-(1-((1-methyl-1H-imidazol-2-yl)methyl)piperidin-4-yl)-1H-indole]"
3,1260,"COc1ccc(-c2[nH]c3ccc(C4CCN(Cc5cnc(C)[nH]5)CC4)cc3c2C(C)C)cc1OC [Example 266, 2-(3,4-dimethoxyphenyl)-3-isopropyl-5-(1-((2-methyl-1H-imidazol-5-yl)methyl)piperidin-4-yl)-1H-indole]"
4,1480,"COc1ccc(-c2[nH]c3ccc(C4CCN(Cc5cnc[nH]5)CC4)cc3c2C(C)C)cc1OC [Example 268, 5-(1-((1H-imidazol-5-yl)methyl)piperidin-4-yl)-2-(3,4-dimethoxyphenyl)-3-isopropyl-1H-indole]"
5,3400,"CCN(CC)C(=O)C1CCCN(C(=O)CN2CCC(c3ccc4[nH]c(-c5ccc(OC)c(OC)c5)c(C(C)C)c4c3)CC2)C1 (centres unmarked) [Example 272, 1-(2-(4-(2-(3,4-dimethoxyphenyl)-3-isopropyl-1H-indol-5-yl)piperidin-1-yl)acetyl)-N,N-diethylpiperidine-3-carboxamide]"
6,565,"COc1ccc(-c2[nH]c3ccc(C4CCN(CC(=O)NC5CCN(C(C)C)CC5)CC4)cc3c2C(C)C)cc1OC [Example 273, 2-(4-(2-(3,4-dimethoxyphenyl)-3-isopropyl-1H-indol-5-yl)piperidin-1-yl)-N-(1-isopropylpiperidin-4-yl)acetamide]"
7,829,"COc1ccc(-c2[nH]c3ccc(C4CCN(CC(=O)N5CCN(C)CC5)CC4)cc3c2C(C)C)cc1OC [Example 274, 2-(4-(2-(3,4-dimethoxyphenyl)-3-isopropyl-1H-indol-5-yl)piperidin-1-yl)-1-(4-methylpiperazin-1-yl) ethan-1-one]"
8,1660,"COc1ccc(-c2[nH]c3ccc(C4CCN(CC(=O)N5CCCC(CO)C5)CC4)cc3c2C(C)C)cc1OC (centres unmarked) [Example 275, 2-(4-(2-(3,4-dimethoxyphenyl)-3-isopropyl-1H-indol-5-yl)piperidin-1-yl)-1-(3-(hydroxymethyl)piperidin-1-yl)ethan-1-one]"
9,3580,"COc1ccc(-c2[nH]c3ccc(C4CCN(CC(=O)NCCO)CC4)cc3c2C(C)C)cc1OC [Example 276, 2-(4-(2-(3,4-dimethoxyphenyl)-3-isopropyl-1H-indol-5-yl)piperidin-1-yl)-N-(2-hydroxyethyl) acetamide]"
10,4980,"COc1ccc(-c2[nH]c3ccc(C4CCN(CC(=O)NCCCO)CC4)cc3c2C(C)C)cc1OC [Example 277, 2-(4-(2-(3,4-dimethoxyphenyl)-3-isopropyl-1H-indol-5-yl)piperidin-1-yl)-N-(3-hydroxypropyl)acetamide]"
11,2870,"COc1ccc(-c2[nH]c3ccc(C4CCN(CC(=O)N5CC[C@H](O)C5)CC4)cc3c2C(C)C)cc1OC [Example 278, (S)-2-(4-(2-(3,4-dimethoxyphenyl)-3-isopropyl-1H-indol-5-yl)piperidin-1-yl)-1-(3-hydroxypyrrolidin-1-yl)ethan-1-one]"
12,18000,"COc1ccc(-c2[nH]c3ccc(C4CCN(CC(=O)N[C@H]5CC[C@H](C(C)(C)O)CC5)CC4)cc3c2C(C)C)cc1OC [Example 279, 2-(4-(2-(3,4-dimethoxyphenyl)-3-isopropyl-1H-indol-5-yl)piperidin-1-yl)-N-((1r,4r)-4-(2-hydroxypropan-2-yl)cyclohexyl)acetamide]"
13,4610,"COc1ccc(-c2[nH]c3ccc(C4CCN(C(=O)CN5CCC[C@H](C(=O)N6CCN(C(C)=O)CC6)C5)CC4)cc3c2C(C)C)cc1OC [Example 284, (S)-2-(3-(4-acetylpiperazine-1-carbonyl)piperidin-1-yl)-1-(4-(2-(3,4-dimethoxyphenyl)-3-isopropyl-1H-indol-5-yl)piperidin-1-yl)ethan-1-one]"
14,4950,"COc1ccc(-c2[nH]c3ccc(C4CCN(C(=O)CN5CCC[C@H](C(=O)NC(C)C)C5)CC4)cc3c2C(C)C)cc1OC [Example 285, (S)-1-(2-(4-(2-(3,4-dimethoxyphenyl)-3-isopropyl-1H-indol-5-yl)piperidin-1-yl)-2-oxoethyl)-N-isopropylpiperidine-3-carboxamide]"
